This is an account of results in US20060264460A1 (Wyeth, priority 2005, published 2006).

As usually defined, the IC50 is the point on the concentration scale where inhibition reaches its midpoint. A lower IC50 goes with greater potency.

T1 sequence (P41279 30-398): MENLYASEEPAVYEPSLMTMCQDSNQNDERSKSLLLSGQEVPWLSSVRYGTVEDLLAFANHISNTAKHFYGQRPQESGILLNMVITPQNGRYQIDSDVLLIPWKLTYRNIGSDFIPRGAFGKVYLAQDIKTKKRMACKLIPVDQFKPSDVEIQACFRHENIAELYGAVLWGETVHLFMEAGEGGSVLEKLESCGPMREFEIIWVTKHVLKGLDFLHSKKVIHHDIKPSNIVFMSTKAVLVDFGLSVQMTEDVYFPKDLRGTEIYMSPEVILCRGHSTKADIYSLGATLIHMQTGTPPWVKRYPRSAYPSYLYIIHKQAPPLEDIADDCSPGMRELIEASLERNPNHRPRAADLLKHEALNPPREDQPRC

The first assay addresses T1, human Cot/Tpl2 kinase (Homo sapiens, UniProt P41279).
T1 construct: human Cot/Tpl2 kinase construct encoding residues 30-398; 6His (N); made in house; host or cells: Sf9 insect cells, baculovirus system (BD Biosciences)
Briefly: Tpl2/Cot kinase assay: GST-MEK1 phosphorylation detected by ELISA (DELFIA Eu). The class given is biochemical. The conditions noted are these: 0.4 nM Tpl2, 35 nM GST-MEK1, 50 uM ATP, 1 h at 30° C. An outline of the steps: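 His-tagged human Tpl2 from Sf9 cells, Ni-affinity and size-exclusion purified (monomer). 0.4 nM Tpl2 with 35 nM GST-MEK1, 50 uM ATP, MOPS pH 7.2, 1% DMSO, 1 h at 30° C; EDTA stop. MEK1 Ser217/221 phosphorylation detected by anti-phospho-MEK1 and Eu-labelled secondary ELISA; IC50 fitted.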
Background: ELISA stands for enzyme-linked immunosorbent assay.
In turn, `N#Cc1cnc2c(Br)cc(NCc3cn(CCN4CCOCC4)nn3)cc2c1Nc1ccc(F)c(Cl)c1` [Example 297, 8-Bromo-4-(3-chloro-4-fluoro-phenylamino)-6-{[1-(2-morpholin-4-yl-ethyl)-1H-[1,2,3]triazol-4-ylmethyl]-amino}-quinoline-3-carbonitrile] returned an IC50 of 29 nM. Take `Cc1c(CNc2cc(Br)c3ncc(C#N)c(Nc4ccc(F)c(Cl)c4)c3c2)ncn1C` [Example 113, 8-bromo-4-(3-chloro-4-fluorophenylamino)-6-((1,5-dimethyl-1H-imidazol-4-yl)methylamino)quinoline-3-carbonitrile]: the IC50 stood at 10 nM. With `N#Cc1cnc2c(Cl)cc(NCc3cc4n(n3)CCC4)cc2c1Nc1ccc(F)c(Cl)c1` [Example 189, 8-chloro-4-(3-chloro-4-fluorophenylamino)-6-((5,6-dihydro-4H-pyrrolo[1,2-b]pyrazol-2-yl)methylamino)quinoline-3-carbonitrile], it took 100 nM to reach half-maximal inhibition (IC50). On to `Cc1cc2ncc(C#N)c(Nc3ccc(F)c(Cl)c3)c2cc1NCc1cccnc1` [Example 225, 4-[(3-Chloro-4-fluorophenyl)amino]-7-methyl-6-[(pyridin-3-ylmethyl)amino]quinoline-3-carbonitrile], for which the 50% inhibitory concentration (IC50) was > 40000 nM. The molecule `N#Cc1cnc2ccc(NCC(=O)O)cc2c1Nc1ccc(F)c(Cl)c1` [Example 175, 2-(4-(3-chloro-4-fluorophenylamino)-3-cyanoquinolin-6-ylamino)acetic acid] registered an IC50 of 310 nM. The same measure, in the same setting: in the case of `N#Cc1cnc2c(Cl)cc(NCc3cnc[nH]3)cc2c1Nc1ccc(F)c(Cl)c1` [Example 177, 6-((1H-imidazol-5-yl)methylamino)-8-chloro-4-(3-chloro-4-fluorophenylamino)quinoline-3-carbonitrile] it was 10 nM. `N#Cc1cnc2ccc(NCc3ccc(O)c(Cl)c3)cc2c1Nc1ccc(F)c(Cl)c1` [Example 151, 6-(3-chloro-4-hydroxybenzylamino)-4-(3-chloro-4-fluorophenylamino)quinoline-3-carbonitrile] registered a concentration for half-maximal inhibition (IC50) of 610 nM. This IC50 is about 61-fold higher than that of the molecule before.

On to `CNC(=O)CNc1ccc2ncc(C#N)c(Nc3ccc(F)c(Cl)c3)c2c1` [Example 108, 2-(4-(3-chloro-4-fluorophenylamino)-3-cyanoquinolin-6-ylamino)-N-methylacetamide], for which the IC50 amounted to 550 nM.

The molecule `N#Cc1cnc2ccc(NCc3cnc[nH]3)cc2c1Nc1ccncc1` [Example 264, 6-[(1H-imidazol-5-ylmethyl)amino]-4-(pyridin-4-ylamino)quinoline-3-carbonitrile] came in with a 50% inhibitory concentration (IC50) of 2500 nM. In the case of `N#Cc1cnc2ccc(NCc3nccn3CC(N)=O)cc2c1Nc1ccc(F)c(Cl)c1` [Example 139, 2-(2-((4-(3-chloro-4-fluorophenylamino)-3-cyanoquinolin-6-ylamino)methyl)-1H-imidazol-1-yl)acetamide], the midpoint of inhibition, the IC50, lay at 99 nM.

`N#Cc1cnc2c(Cl)cc(NCc3cn(C4CCC(=O)CC4)nn3)cc2c1Nc1ccc(F)c(Cl)c1` [Example 333, 8-chloro-4-[(3-chloro-4-fluorophenyl)amino]-6-({[1-(4-oxocyclohexyl)-1H-1,2,3-triazol-4-yl]methyl}amino)quinoline-3-carbonitrile]: the half-maximal inhibitory concentration (IC50) turned out to be 1.1 nM. With `N#Cc1cnc2ccc(NCC(N)=O)cc2c1Nc1ccc(F)c(Cl)c1` [Example 176, 2-(4-(3-chloro-4-fluorophenylamino)-3-cyanoquinolin-6-ylamino)acetamide], it took 4300 nM to reach half-maximal inhibition (IC50).

For `COCCOc1ccc(CNc2ccc3ncc(C#N)c(Nc4ccc(F)c(Cl)c4)c3c2)cc1C#N` [Example 25, 4-(3-Chloro-4-fluoro-phenylamino)-6-[3-cyano-4-(2-methoxy-ethoxy)-benzylamino]-quinoline-3-carbonitrile], the 50% inhibitory concentration (IC50) turned out to be 82 nM. `CC(C)(C)OC(=O)COc1ccc(CNc2ccc3ncc(C#N)c(Nc4ccc(F)c(Cl)c4)c3c2)cc1Br` [Example 26, (2-Bromo-4-{[4-(3-chloro-4-fluoro-phenylamino)-3-cyano-quinolin-6-ylamino]-methyl}-phenoxy)-acetic acid tert-butyl ester]: the IC50 was > 40000 nM. On the same count and under the same terms, with `N#Cc1cnc2c(NC=O)cc(NCc3cccnc3)cc2c1Nc1cccc(Cl)c1` [Example 75, N-(4-(3-chlorophenylamino)-3-cyano-6-(pyridin-3-ylmethylamino)quinolin-8-yl)formamide] the figure was 2600 nM; with `CN(C)C(=O)c1ccc2cc(CNc3ccc4ncc(C#N)c(Nc5ccc(F)c(Cl)c5)c4c3)n(C)c2c1` [Example 156, 2-((4-(3-chloro-4-fluorophenylamino)-3-cyanoquinolin-6-ylamino)methyl)-N,N,1-trimethyl-1H-indole-6-carboxamide], 420 nM. Same read-out and setting: with `N#Cc1cccc(CNc2cc(C(F)(F)F)c3ncc(C#N)c(Nc4ccc(F)c(Cl)c4)c3c2)c1` [Example 232, 4-[(3-chloro-4-fluorophenyl)amino]-6-[(3-cyanobenzyl)amino]-8-(trifluoromethyl)quinoline-3-carbonitrile] the figure was 24000 nM; with `N#Cc1cnc2ccc(NCc3c[nH]c4c(F)c(F)c(F)c(F)c34)cc2c1Nc1ccc(F)c(Cl)c1` [Example 49, 4-(3-Chloro-4-fluoro-phenylamino)-6-[(4,5,6,7-tetrafluoro-1H-indol-3-ylmethyl)-amino]-quinoline-3-carbonitrile], > 40000 nM; with `Cn1cc(CNc2cc(Cl)c3ncc(C#N)c(Nc4ccc(F)c(Cl)c4)c3c2)nn1` [Example 217, 8-chloro-4-[(3-chloro-4-fluorophenyl)amino]-6-{[(1-methyl-1H-1,2,3-triazol-4-yl)methyl]amino}quinoline-3-carbonitrile], 7.2 nM.

Regarding `N#Cc1cnc2c(I)cc(NCc3cccnc3)cc2c1Nc1cccc(Cl)c1` [Example 79, 4-(3-chlorophenylamino)-8-iodo-6-(pyridin-3-ylmethylamino)quinoline-3-carbonitrile], the half-inhibitory concentration (IC50) came to 570 nM.

The same assay, now with this note: Table 2; Tpl2/Cot kinase, GST-MEK1 substrate, 50 uM ATP.
On to `N#Cc1cnc2c(Cl)cc(NCc3cn(-c4ccnc(N5CCCCC5)n4)nn3)cc2c1Nc1ccc(F)c(Cl)c1` [Example 578], for which the midpoint of inhibition, the IC50, lay at 320 nM. On to `N#Cc1cnc2ccc(NCCN3CCOCC3)cc2c1Sc1ccc(F)c(Cl)c1` [Example 358], for which the IC50 is > 40000 nM. On the same count and under the same terms, in the case of `N#Cc1cnc2c(Br)cc(NCc3cn(-c4ccncc4)nn3)cc2c1Nc1ccc(F)c(Cl)c1` [Example 559] it was 5.5 nM; in that of `N#Cc1cnc2ccc(NCCN3CCOCC3)cc2c1Nc1cccc(F)c1` [Example 351], 1900 nM. Take `CC(C)(C)Nc1c(C#N)cnc2ccc(NCc3cnc[nH]3)cc12` [Example 401]: the IC50 was determined as 3100 nM. Same read-out and setting: with `CC(C)(CNc1cc(Cl)c2ncc(C#N)c(Nc3ccc(F)c(Cl)c3)c2c1)N1CCOCC1` [Example 450] the figure was 2400 nM; with `N#Cc1cnc2c(Cl)cc(NCC(=O)Nc3ccncc3)cc2c1Nc1ccc(F)c(Cl)c1` [Example 602], 2400 nM; with `Cc1cc(CNc2cc(Br)c3ncc(C#N)c(Nc4ccc(F)c(Cl)c4)c3c2)nn1C` [Example 449], 5500 nM. Still for that read-out and setting: in the case of `CCOC(=O)CNc1cc(Cl)c2ncc(C#N)c(Nc3ccc(F)c(Cl)c3)c2c1` [Example 475] it was 1400 nM. `CC(C)(C)OC(=O)N1CCC(CCn2cc(CNc3cc(Br)c4ncc(C#N)c(Nc5ccc(F)c(Cl)c5)c4c3)nn2)CC1` [Example 503]: the midpoint of inhibition, the IC50, lay at 130 nM. Same read-out and setting: with `CC(C)N1CCC(CCn2cc(CNc3cc(Br)c4ncc(C#N)c(Nc5ccc(F)c(Cl)c5)c4c3)nn2)CC1` [Example 569] the figure was 57 nM; with `N#Cc1cnc2c(Br)cc(NCc3cc([C@@H]4CCCN4)n[nH]3)cc2c1Nc1ccc(F)c(Cl)c1` [Example 555], 330 nM. On to `C#Cc1cccc(Nc2c(C#N)cnc3ccc(NCCN4CCOCC4)cc23)c1` [Example 357], for which half-maximal inhibition (IC50) was put at 1300 nM.

With `CN(C)CCC(c1cccnc1)n1cc(CNc2cc(Br)c3ncc(C#N)c(Nc4ccc(F)c(Cl)c4)c3c2)nn1` (centres unmarked) [Example 587], it took 6.7 nM to reach half-maximal inhibition (IC50). This IC50 lies about 190-fold lower than the previous one. In the case of `COCCOCCn1cc(CNc2cc(Br)c3ncc(C#N)c(Nc4ccc(F)c(Cl)c4)c3c2)nn1` [Example 565], the IC50 stood at 100 nM.

The assay is the same for the next values; noted with them: Tpl2/Cot kinase, GST-MEK1 substrate, 50 uM ATP.
The molecule `CCN(C[C@@H]1CCCN1CC)c1cc(Cl)c2ncc(C#N)c(Nc3ccc(F)c(Cl)c3)c2c1` [Example 811] displayed an IC50 of 1200 nM. `CC(C)(C)OC(=O)N1CCCN(CCCn2cc(CNc3cc(Br)c4ncc(C#N)c(Nc5ccc(F)c(Cl)c5)c4c3)nn2)CC1` [Example 762]: the IC50 came to 520 nM. On to `CC(=O)N(CCNc1cc(Cl)c2ncc(C#N)c(Nc3ccc(F)c(Cl)c3)c2c1)Cc1ccccn1` [Example 846], for which the concentration for half-maximal inhibition (IC50) stood at 170 nM.

The molecule `CCN1CCC(CCn2cc(CNc3cc(Br)c4ncc(C#N)c(Nc5ccc(F)c(Cl)c5)c4c3)nn2)CC1` [Example 737] had an IC50 of 64 nM. On the same count and under the same terms, in the case of `CC(=O)N1CCCCC1CNc1cc(Cl)c2ncc(C#N)c(Nc3ccc(F)c(Cl)c3)c2c1` (centres unmarked) [Example 875] it was 620 nM.

Staying with this assay, now noted: Tpl2/Cot kinase, GST-MEK1 substrate, 50 uM ATP, 1 h at 30° C.; Table 2.
In the case of `N#Cc1cnc2c(Cl)cc(NC[C@H]3C[C@H](OCc4ccccc4)CO3)cc2c1Nc1ccc(F)c(Cl)c1` [Example 935], the IC50 is > 3000 nM.

As for `CN1CCCC1CCn1cc(CNc2cc(Cl)c3ncc(C#N)c(NC4CCCC5(CCCC5)C4)c3c2)nn1` (centres unmarked) [Example 972], the concentration for half-maximal inhibition (IC50) is > 3000 nM. In the case of `N#Cc1cnc2c(Cl)cc(NCc3cn(C4CCC(Nc5ccccn5)CC4)nn3)cc2c1Nc1ccc(F)c(Cl)c1` (centres unmarked) [Example 1039], the IC50 is 100 nM. Consider `N#Cc1cnc2c(Cl)cc(NCc3cn(CCN4CCCCC4)nn3)cc2c1NC1CCC1` [Example 954], for which the IC50 was 520 nM. This IC50 is about 5.2-fold higher than that of the molecule before.
